Data published in patent US20250084058A1, “PHENYLPYRAZOLE COMPOUND AND APPLICATION THEREOF” (priority 2022, published 2025).
Read-outs that look alike come from different tables or passages of the source.

Legend:
Assay type in all cases: in vivo
Plutella xylostella = assay: Activity determination of killing Plutella xylostella (Airbrush spray, cabbage leaf discs); details: foliar; for mortality at 0.3125 µg/mL: read-out: Mortality (%, on 3rd day after administration) 0.3125 mg/L; for mortality at 0.625 µg/mL: read-out: Mortality (%, on 3rd day after administration) 0.625 mg/L
Method: (§1) The compounds to be tested were dissolved in a mixed solvent of acetone/methanol (1:1) and then diluted to desired concentrations with water containing 0.1% (wt) Tween 80.
(§2) With Mythimna separata and Plutella xylostella as targets, the activity was determined by Airbrush spray method.
Determination method: Cabbage leaves were punched into leaf discs with the diameter of 2 cm by a puncher, the pressure of Airbrush spray treatment is 10 psi (about 0.7 kg/cm^2), and the compounds to be tested were sprayed onto the front and back surfaces of each leaf disc at a liquid amount of 0.5 mL. After drying in the shade, 10 3rd instar larvae were inoculated to each treatment, and each treatment was repeated for 3 times. After the treatment, the larvae were placed in an observation room for culture at 25° C. with relative humidity of 60-70%. On 3rd day after administration, the number of surviving larvae was investigated, and the mortality was calculated.
Some compounds of the present disclosure and control compounds were selected to carry out parallel comparative experiments of the insecticidal activity against Plutella xylostella (on 3rd day after administration), and the determination method was the same as above.

Mythimna separata = assay: Activity determination of killing Mythimna separata (Airbrush spray, corn leaf segments); details: foliar, dose 1.25 mg/L, 3rd instar larvae, 3rd day after administration, read-out: mortality against Mythimna separata
Method: as §1, §2
Determination method: Corn leaves were cut into leaf segments with the length of 2 cm, the pressure of Airbrush spray treatment is 10 psi (about 0.7 kg/cm^2), and the compounds to be tested were sprayed onto the front and back surfaces of each leaf segment at a liquid amount of 0.5 mL. After drying in the shade, 10 3rd instar larvae were inoculated to each treatment, and each treatment was repeated for 3 times. After the treatment, the larvae were placed in an observation room for culture at 25° C. with relative humidity of 60-70%. On the 3rd day after administration, the number of surviving larvae was investigated, and the mortality was calculated.

Tetranychus cinnabarinus = assay: Greenhouse acaricidal activity on adult acarids of Tetranychus cinnabarinus (spraying of Phaseolus vulgaris seedlings); details: dose 1.25 mg/L, after 72 h, read-out: mortality against adult acarids of Tetranychus cinnabarinus
Method: According to the solubility of the compounds to be tested, the compounds to be tested were dissolved in acetone or dimethyl sulfoxide and prepared into 50 mL of solutions to be tested at desired concentrations with a 0.1% Tween 80 solution, where the content of the acetone or dimethyl sulfoxide in the solutions was not higher than 10%.
Two true leaves of Phaseolus vulgaris seedlings were taken, and 30-40 adult acarids of Tetranychus cinnabarinus were inoculated. After the cardinal number was investigated, the whole plants were subjected to spraying treatment with a hand-held sprayer, each treatment was repeated for 3 times, and the plants were placed in a standard observation room after the treatment. The number of surviving acarids was investigated after 72 h, and the mortality was calculated.

Dermacentor variabilis = assay: Insecticidal test on Dermacentor variabilis (compound film in culture dish); details: 1 μg/cm^2, 1st nymphs, after 24 h, 25° C., read-out: insect mortality (Dermacentor variabilis)
Method: (§3) 4 mg of compounds to be tested were dissolved in 40 mL of acetone to obtain acetone solutions with a concentration of 100 mg/L. Bottom surfaces and side surfaces of 2 culture dishes with an inner diameter of 5.3 cm were coated with 400 μL of the drug solutions, and when the acetone was volatilized, films of the compounds of the present disclosure were prepared on inner walls of the culture dishes. The inner walls of the culture dishes used were 40 cm^2, and a dose of the treatment drugs was 1 μg/cm^2. 10 1st nymphs of Dermacentor variabilis (males and females were mixed) were placed in the culture dishes. The 2 culture dishes were combined, sealed with tape at a junction portion to prevent escape of the nymphs, and then stored in a constant-temperature room at 25° C. The number of dead insects was checked after 24 h, and the insect mortality was calculated. The test was repeated for 3 times. Test results: The insect mortality of compounds 1, 2, 3, 4, 5, 11, 12, 18, 32, 33, 34, 46, 60, 74, 88, 99, 101, 102, 104, 105, 108, 109, 110, 111, 113 and 114 is 70% or above.

Ctenocephalides felis = assay: Insecticidal test on Ctenocephalides felis (compound film in culture dish); details: 1 μg/cm^2; adult Ctenocephalides felis; after 72 h; 25° C.; read-out: insect mortality (Ctenocephalides felis)
Method: as §3, with “of” for “of 2”, “adult Ctenocephalides felis” for “1st nymphs of Dermacentor variabilis”, “dishes, and the” for “dishes. The 2”, “covered” for “combined, sealed with tape at a junction portion to prevent escape of the nymphs,”, “72” for “24”

[1] = read-out: Mortality (%, on 3rd day after administration) 1.25 mg/L
[2] = 0.3125 mg/L, parallel comparative experiment, 3rd day after administration
[3] = 0.625 mg/L, parallel comparative experiment, 3rd day after administration
[4] = 1.25 mg/L, parallel comparative experiment, 3rd day after administration, read-out: Mortality (%, on 3rd day after administration) 1.25 mg/L
[5] = dose 1.25 mg/L, 3rd instar larvae, 3rd day after administration, read-out: mortality against Plutella xylostella

Row | Compound | mortality at 0.3125 µg/mL (Plutella xylostella) [%] | mortality at 0.625 µg/mL (Plutella xylostella) [%] | mortality at 1.25 µg/mL (Plutella xylostella; [1]) [%] | mortality at 0.3125 µg/mL (Plutella xylostella; [2]) [%] | mortality at 0.625 µg/mL (Plutella xylostella; [3]) [%] | mortality at 1.25 µg/mL (Plutella xylostella; [4]) [%] | mortality at 1.25 µg/mL (Plutella xylostella; [5]) [%] | mortality at 1.25 µg/mL (Mythimna separata) [%] | mortality at 1.25 µg/mL (Tetranychus cinnabarinus) [%] | mortality at 1 µg/cm2 (Dermacentor variabilis) [%] | mortality at 1 µg/cm2 (Ctenocephalides felis) [%]
1 | CN(C(=O)c1cc(-c2cnn(-c3c(Cl)cc(C(F)(C(F)(F)F)C(F)(F)F)cc3Cl)c2)cnc1Cl)C1CC1 [CK2, reference compound] | 13.3 | 60 | 93.3 | – | – | – | – | – | – | – | –
2 | CC(=O)N(C(=O)c1cc(-c2cnn(-c3c(Cl)cc(C(F)(C(F)(F)F)C(F)(F)F)cc3Cl)c2)cnc1Cl)C1CC1 [Compound 99] | – | – | – | 100 | 100 | 100 | ≥ 90 | ≥ 90 | ≥ 90 | ≥ 70 | ≥ 70
3 | C#CCN(C(=O)c1cc(-c2cnn(-c3c(Cl)cc(C(F)(C(F)(F)F)C(F)(F)F)cc3Cl)c2)cnc1Cl)C1CC1 [Compound 2] | – | – | – | 90 | 100 | 100 | ≥ 90 | ≥ 90 | ≥ 90 | ≥ 70 | ≥ 70
4 | N#CCN(C(=O)c1cc(-c2cnn(-c3c(Cl)cc(C(F)(C(F)(F)F)C(F)(F)F)cc3Cl)c2)cnc1Cl)C1CC1 [Compound 4] | – | – | – | 100 | 100 | 100 | ≥ 90 | ≥ 90 | ≥ 90 | ≥ 70 | ≥ 70
5 | N#CCN(C(=O)c1cc(-c2cnn(-c3c(Cl)cc(C(F)(C(F)(F)F)C(F)(F)F)cc3Br)c2)cnc1Cl)C1CC1 [Compound 32] | – | – | – | – | – | – | ≥ 90 | ≥ 90 | ≥ 90 | ≥ 70 | ≥ 70
6 | CCC(=O)N(C(=O)c1cc(-c2cnn(-c3c(Cl)cc(C(F)(C(F)(F)F)C(F)(F)F)cc3Cl)c2)cnc1Cl)C1(C#N)CC1 [Compound 109] | – | – | – | – | – | – | ≥ 90 | ≥ 90 | ≥ 90 | ≥ 70 | ≥ 70
7 | CCCC(=O)N(C(=O)c1cc(-c2cnn(-c3c(Cl)cc(C(F)(C(F)(F)F)C(F)(F)F)cc3Cl)c2)cnc1Cl)C1(C#N)CC1 [Compound 110] | – | – | – | – | – | – | ≥ 90 | ≥ 90 | ≥ 90 | ≥ 70 | ≥ 70
8 | CC(=O)N(C(=O)c1cc(-c2cnn(-c3c(Cl)cc(C(F)(C(F)(F)F)C(F)(F)F)cc3Cl)c2)cnc1Cl)C1(C#N)CC1 [Compound 108] | – | – | – | 100 | 100 | 100 | ≥ 90 | ≥ 90 | ≥ 90 | ≥ 70 | ≥ 70
9 | N#CCN(C(=O)c1cc(-c2cnn(-c3c(Cl)cc(C(F)(C(F)(F)F)C(F)(F)F)cc3OC(F)(F)F)c2)cnc1Cl)C1CC1 [Compound 88] | – | – | – | – | – | – | ≥ 90 | ≥ 90 | ≥ 90 | ≥ 70 | ≥ 70
10 | CC(C)C(=O)N(C(=O)c1cc(-c2cnn(-c3c(Cl)cc(C(F)(C(F)(F)F)C(F)(F)F)cc3Cl)c2)cnc1Cl)C1(C#N)CC1 [Compound 111] | – | – | – | – | – | – | ≥ 90 | ≥ 90 | ≥ 90 | ≥ 70 | ≥ 70
11 | CCCC(=O)N(C(=O)c1cc(-c2cnn(-c3c(Cl)cc(C(F)(C(F)(F)F)C(F)(F)F)cc3Cl)c2)cnc1Cl)C1CC1 [Compound 101] | – | – | – | – | – | – | ≥ 90 | ≥ 90 | ≥ 90 | ≥ 70 | ≥ 70
12 | O=C(c1cc(-c2cnn(-c3c(Cl)cc(C(F)(C(F)(F)F)C(F)(F)F)cc3Cl)c2)cnc1Cl)N(CC1CC1)C1CC1 [Compound 3] | – | – | – | 76.7 | 100 | 100 | ≥ 90 | ≥ 90 | ≥ 90 | ≥ 70 | ≥ 70
13 | COCC(=O)N(C(=O)c1cc(-c2cnn(-c3c(Cl)cc(C(F)(C(F)(F)F)C(F)(F)F)cc3Cl)c2)cnc1Cl)C1(C#N)CC1 [Compound 114] | – | – | – | 100 | 100 | 100 | ≥ 90 | ≥ 90 | ≥ 90 | ≥ 70 | ≥ 70
14 | N#CCN(C(=O)c1cc(-c2cnn(-c3c(Cl)cc(C(F)(C(F)(F)F)C(F)(F)F)cc3Cl)c2)cnc1Cl)C1(C#N)CC1 [Compound 11] | – | – | – | 100 | 100 | 100 | ≥ 90 | ≥ 90 | ≥ 90 | ≥ 70 | ≥ 70
15 | N#CCCN(C(=O)c1cc(-c2cnn(-c3c(Cl)cc(C(F)(C(F)(F)F)C(F)(F)F)cc3Cl)c2)cnc1Cl)C1(C#N)CC1 [Compound 12] | – | – | – | 100 | 100 | 100 | ≥ 90 | ≥ 90 | ≥ 90 | ≥ 70 | ≥ 70
16 | O=C(NC1CC1)c1cc(-c2cnn(-c3c(Cl)cc(C(F)(C(F)(F)F)C(F)(F)F)cc3Cl)c2)cnc1Cl [CK1, reference compound] | – | – | – | 20 | 66.7 | 100 | – | – | – | – | –
17 | N#CC1(NC(=O)c2cc(-c3cnn(-c4c(Cl)cc(C(F)(C(F)(F)F)C(F)(F)F)cc4Cl)c3)cnc2Cl)CC1 [CK3, reference compound] | 30 | 60 | 100 | – | – | – | – | – | – | – | –
18 | CN(C(=O)c1cc(-c2cnn(-c3c(Cl)cc(C(F)(C(F)(F)F)C(F)(F)F)cc3Cl)c2)cnc1Cl)C1(C#N)CC1 [CK4, reference compound] | 20 | 56.7 | 90 | – | – | – | – | – | – | – | –
